Measured values: patent US20080032950A1, “Neurologically-Active Compounds” (The University of Sydney, priority 2004, published 2008)
Like-named read-outs stand apart in the source and are kept apart here.

Assays:
GABAC receptors = conditions: antagonist; Woodward et al, 1993; cited from earlier work
GABAC receptor = GABAC receptor (Homo sapiens, UniProt P24046); conditions: cited from earlier work
GABAA (α1β2γ2L) = biological target: T1, GABAA (α1β2γ2L) (Homo sapiens, UniProt P14867+P47870); experiment: Two-electrode voltage clamp on GABAA receptors expressed in Xenopus oocytes; format: cell-based; conditions: for GABAA (α1β2γ2L) activity (type of action): Xenopus oocytes, voltage clamp -60 mV
T1 construct: expressed in transfected cells; host or cells: Xenopus laevis oocytes injected with mRNA
Method: (§1) The activity of compounds (15), (16), (17), (18) and (19) on GABA receptor sub-types were determined as described in Chebib, M., Mewett, K. N., Johnston, G. A. R., 1998, “GABAC receptor antagonists differentiate between human ρ1 and ρ2 receptors expressed in Xenopus oocytes”, European Journal of Pharmacology 357, 227-234.
(§2) In this method, oocytes were harvested from Xenopus laevis and defolliculated. The oocytes were then stored in ND96 solution (96 mM NaCl, 2 mM KCl, 1.8 mM CaCl2.2H2O, 1 mM MgCl2.6H2O, 5 mM HEPES (hemi-Na), pH 7.5) supplemented with 2.5 mM sodium pyruvate, 0.5 mM theophylline and 50 μgml^−1 gentamycin. The storage solution was changed daily.
(§3) Stage V-VI oocytes were injected with mRNA (10 ng/50 nl) and then stored at 16° C. Recordings of receptor activity were obtained after two to eight days by a two-electrode voltage clamp by means of a Geneclamp 500 amplifier (Axon Instruments Inc., Foster City, Calif.), a MacLab 2e recorder (AD Instruments, Sydney, NSW) and Chart version 3.6.3 program. Oocytes were voltage clamped at −60 mV and the preparation was continually perfused with ND96 solution at room temperature. Known concentrations of agonists and antagonists dissolved in ND96 were applied in the absence and presence of GABA respectively until maximum current was reached, at which time the oocyte was washed for five to ten minutes to allow complete recovery of response to a known dose of GABA. In the case of antagonists, two dose response curves were conducted on the same cell to enable calculation of single point estimates: a GABA dose-response curve and a GABA dose-response curve in the presence of a known concentration of antagonist. All compounds were tested on oocytes from at least three harvests.

GABAB (GB1) = biological target: T2, GABAB (GB1) (Homo sapiens, UniProt Q9UBS5); experiment: Two-electrode voltage clamp on GABAB receptors expressed in Xenopus oocytes; format: cell-based; conditions: for GABAB (GB1) activity (type of action): voltage clamp -60 mV
T2 construct: expressed in transfected cells; host or cells: Xenopus laevis oocytes injected with mRNA
Method: as §1, §2, §3

GABAC (ρ1) = biological target: T3, GABAC (ρ1) (Homo sapiens, UniProt P24046); experiment: Two-electrode voltage clamp on ρ1 GABAC receptors expressed in Xenopus oocytes; format: cell-based; conditions: for Selectivity (receptor subtype preferred): among GABAA, GABAB, GABAC; for Selectivity (fold): for GABAC over GABAA and GABAB
T3 construct: expressed in transfected cells; host or cells: Xenopus laevis oocytes injected with mRNA
Method: as §1, §2, §3
The activity of this compound on the GABA receptor sub-types was determined by the same procedure as described in Example 2 for compounds (15) to (19). (±)-3-Aminocyclopente-1-nyl)methylphosphinic acid (200 μM) had no effect alone on ρ1 GABAC receptors but in the presence of 1 μM GABA inhibited the response by 65%.

[1] = Xenopus oocytes, voltage clamp -60 mV

T3 sequence (P24046 22-479): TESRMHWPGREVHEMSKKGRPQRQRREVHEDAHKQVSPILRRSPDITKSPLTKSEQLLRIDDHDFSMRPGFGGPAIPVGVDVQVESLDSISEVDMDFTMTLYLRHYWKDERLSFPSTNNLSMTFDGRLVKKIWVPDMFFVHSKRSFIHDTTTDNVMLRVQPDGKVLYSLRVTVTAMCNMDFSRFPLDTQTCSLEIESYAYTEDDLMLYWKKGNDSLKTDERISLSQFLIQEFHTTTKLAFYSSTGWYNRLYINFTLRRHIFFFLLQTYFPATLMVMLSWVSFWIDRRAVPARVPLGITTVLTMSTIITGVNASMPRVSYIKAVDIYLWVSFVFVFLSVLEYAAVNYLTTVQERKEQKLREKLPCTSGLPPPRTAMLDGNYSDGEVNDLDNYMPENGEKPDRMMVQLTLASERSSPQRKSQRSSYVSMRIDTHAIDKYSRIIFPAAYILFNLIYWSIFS
T2 sequence (Q9UBS5 20-961, species assumed): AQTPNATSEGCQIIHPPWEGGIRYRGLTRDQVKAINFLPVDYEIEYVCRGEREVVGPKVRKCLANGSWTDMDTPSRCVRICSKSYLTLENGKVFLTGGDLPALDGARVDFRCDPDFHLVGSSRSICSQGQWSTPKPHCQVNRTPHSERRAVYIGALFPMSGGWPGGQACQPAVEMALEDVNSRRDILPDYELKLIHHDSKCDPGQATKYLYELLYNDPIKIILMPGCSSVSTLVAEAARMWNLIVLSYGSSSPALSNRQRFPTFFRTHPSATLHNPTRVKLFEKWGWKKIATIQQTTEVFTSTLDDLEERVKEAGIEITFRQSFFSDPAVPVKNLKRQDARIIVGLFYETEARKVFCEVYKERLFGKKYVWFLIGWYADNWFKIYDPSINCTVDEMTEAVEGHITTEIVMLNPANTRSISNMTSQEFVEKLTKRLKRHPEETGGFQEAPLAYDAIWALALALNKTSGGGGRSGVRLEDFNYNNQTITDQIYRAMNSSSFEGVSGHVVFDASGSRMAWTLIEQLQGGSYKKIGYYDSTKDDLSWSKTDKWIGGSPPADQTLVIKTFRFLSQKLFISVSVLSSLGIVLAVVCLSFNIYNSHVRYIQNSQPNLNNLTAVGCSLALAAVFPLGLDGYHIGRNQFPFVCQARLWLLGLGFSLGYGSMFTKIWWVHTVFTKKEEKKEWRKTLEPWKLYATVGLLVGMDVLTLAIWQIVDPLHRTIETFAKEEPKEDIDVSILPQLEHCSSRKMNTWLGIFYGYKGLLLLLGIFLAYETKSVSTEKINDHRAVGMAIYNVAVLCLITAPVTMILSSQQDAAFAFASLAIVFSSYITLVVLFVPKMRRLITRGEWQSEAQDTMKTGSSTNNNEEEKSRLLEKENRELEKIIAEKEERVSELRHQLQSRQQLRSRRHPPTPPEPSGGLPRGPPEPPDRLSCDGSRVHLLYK
T2 sequence (O75899 42-941 partner, species assumed): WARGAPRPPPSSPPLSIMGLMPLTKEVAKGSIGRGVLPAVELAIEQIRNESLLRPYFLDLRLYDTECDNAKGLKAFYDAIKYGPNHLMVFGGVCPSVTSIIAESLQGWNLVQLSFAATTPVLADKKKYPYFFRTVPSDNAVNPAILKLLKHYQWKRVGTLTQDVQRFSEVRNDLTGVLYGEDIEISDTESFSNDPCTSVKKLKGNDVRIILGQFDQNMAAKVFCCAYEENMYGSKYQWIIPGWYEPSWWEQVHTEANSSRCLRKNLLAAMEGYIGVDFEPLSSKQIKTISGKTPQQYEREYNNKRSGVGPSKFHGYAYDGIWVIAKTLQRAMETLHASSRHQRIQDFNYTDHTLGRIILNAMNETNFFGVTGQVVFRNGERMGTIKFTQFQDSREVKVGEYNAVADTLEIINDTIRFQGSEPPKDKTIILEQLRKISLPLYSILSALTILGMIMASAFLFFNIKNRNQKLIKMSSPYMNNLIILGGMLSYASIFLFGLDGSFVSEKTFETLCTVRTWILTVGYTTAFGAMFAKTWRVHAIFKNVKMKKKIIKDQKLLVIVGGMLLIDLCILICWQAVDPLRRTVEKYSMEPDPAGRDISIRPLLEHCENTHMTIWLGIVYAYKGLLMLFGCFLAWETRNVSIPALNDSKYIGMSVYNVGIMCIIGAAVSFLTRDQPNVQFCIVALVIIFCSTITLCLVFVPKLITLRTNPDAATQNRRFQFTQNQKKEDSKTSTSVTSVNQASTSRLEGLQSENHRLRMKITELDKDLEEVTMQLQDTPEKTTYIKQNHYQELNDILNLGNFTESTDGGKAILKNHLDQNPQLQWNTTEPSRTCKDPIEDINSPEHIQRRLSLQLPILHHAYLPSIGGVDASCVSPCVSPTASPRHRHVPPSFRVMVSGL
T1 sequence (P14867 28-456): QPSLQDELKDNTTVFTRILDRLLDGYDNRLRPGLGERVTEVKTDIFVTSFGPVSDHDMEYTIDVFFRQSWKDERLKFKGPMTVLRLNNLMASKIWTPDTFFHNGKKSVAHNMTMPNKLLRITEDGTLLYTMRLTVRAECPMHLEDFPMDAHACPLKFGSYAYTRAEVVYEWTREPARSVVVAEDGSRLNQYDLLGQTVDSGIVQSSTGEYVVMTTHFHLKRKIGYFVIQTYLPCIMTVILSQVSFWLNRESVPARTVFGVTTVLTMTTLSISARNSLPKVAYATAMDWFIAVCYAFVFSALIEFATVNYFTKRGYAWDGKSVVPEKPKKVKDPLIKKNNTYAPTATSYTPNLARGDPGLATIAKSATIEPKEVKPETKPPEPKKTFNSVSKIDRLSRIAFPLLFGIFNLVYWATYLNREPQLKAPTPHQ
T1 sequence (P47870 25-512 limits assumed): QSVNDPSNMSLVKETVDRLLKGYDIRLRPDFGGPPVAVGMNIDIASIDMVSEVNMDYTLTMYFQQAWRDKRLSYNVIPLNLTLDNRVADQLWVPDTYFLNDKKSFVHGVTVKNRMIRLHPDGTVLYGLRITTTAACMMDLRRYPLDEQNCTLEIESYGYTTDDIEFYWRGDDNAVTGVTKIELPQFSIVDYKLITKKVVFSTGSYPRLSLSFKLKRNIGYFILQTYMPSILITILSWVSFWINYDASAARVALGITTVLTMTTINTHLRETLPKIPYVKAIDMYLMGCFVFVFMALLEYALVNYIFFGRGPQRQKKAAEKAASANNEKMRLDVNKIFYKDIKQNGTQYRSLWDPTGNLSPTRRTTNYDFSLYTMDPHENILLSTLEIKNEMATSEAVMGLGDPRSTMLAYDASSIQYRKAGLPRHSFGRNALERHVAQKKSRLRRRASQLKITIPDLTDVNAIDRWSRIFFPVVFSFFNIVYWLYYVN
T1 sequence (P18507 40-475 partner): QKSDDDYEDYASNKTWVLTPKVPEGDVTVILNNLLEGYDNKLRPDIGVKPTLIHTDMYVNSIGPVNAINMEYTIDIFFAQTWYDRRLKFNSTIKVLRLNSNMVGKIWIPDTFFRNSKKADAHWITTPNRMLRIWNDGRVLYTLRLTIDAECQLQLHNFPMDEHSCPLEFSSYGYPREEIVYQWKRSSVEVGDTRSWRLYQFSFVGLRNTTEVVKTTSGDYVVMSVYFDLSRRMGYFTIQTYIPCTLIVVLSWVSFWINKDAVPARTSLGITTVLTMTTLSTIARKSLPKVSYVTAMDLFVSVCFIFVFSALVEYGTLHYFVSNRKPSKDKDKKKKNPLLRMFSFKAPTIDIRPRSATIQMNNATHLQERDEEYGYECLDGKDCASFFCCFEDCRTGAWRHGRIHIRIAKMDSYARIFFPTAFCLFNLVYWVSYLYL
Chain of GABAC receptor (P24046 22-479): as the sequence (P24046 22-479) above

Compound | Kb (GABAC receptors) [µM] | IC50 (GABAA (α1β2γ2L)) [µM] | GABAA (α1β2γ2L) activity (type of action) (GABAA (α1β2γ2L)) | GABAB (GB1) activity (type of action) (GABAB (GB1); Xenopus oocytes) | GABAC (ρ1) activity (type of action) (GABAC (ρ1); [1]) | Selectivity (receptor subtype preferred) (GABAC (ρ1)) | Selectivity (fold) (GABAC (ρ1)) | IC50 (GABAB (GB1)) [µM] | other results
NCCC[PH](=O)O [CGP27492, 3-aminopropylphosphinic acid] | 0.8 | – | – | – | – | – | – | – | –
(1,2,5,6-tetrahydropyridine-4-yl)methylphosphinic acid [TPMPA] | – | – | – | – | – | – | – | – | Kb (GABAC receptor; antagonist, Murata et al, 1996, Ragozzinno et al, 1996, read-out: KB at GABAC receptors): 2.1 µM; IC50 (GABAC receptor; read-out: Concentration producing 50% inhibition of GABAC receptor activation): 2.1 µM
CP(=O)(O)C1=CCC(N)C1 (racemic) [Compound 15, (±)-(4-Aminocyclopent-1-enyl)methylphosphinic acid] | – | > 300 | Antagonist | Partial Agonist | Antagonist | GABAC | ˜50x | – | –
CCP(=O)(O)C1=CCC(N)C1 (racemic) [Compound 16, (±)-(4-Aminocyclopent-1-enyl)ethylphosphinic acid] | – | > 600 | Antagonist | Antagonist | Antagonist | GABAC | ˜25x | > 300 | –
CCCCP(=O)(O)C1=CCC(N)C1 (racemic) [Compound 18, (±)-(4-Aminocyclopent-1-enyl)butylphosphinic acid] | – | > 300 | Antagonist | Antagonist | Antagonist | GABAC | ˜100x | ~300 | –
NC1CC=C(P(=O)(O)Cc2ccccc2)C1 (racemic) [Compound 19, (±)-(4-Aminocyclopent-1-enyl)benzylphosphinic acid] | – | – | Antagonist | – | Antagonist | – | – | – | GABAB (GB1) effect (GABAB (GB1); at ~300 μM, Xenopus oocytes): (No effect ˜ 300 μM); IC50 (GABAC (ρ1); Xenopus oocytes, voltage clamp -60 mV, read-out: GABAC (ρ1) IC50): > 300 µM
CC(C)P(=O)(O)C1=CCC(N)C1 (racemic) [Compound 17, (±)-(4-Aminocyclopent-1-enyl)isopropylphosphinic acid] | – | > 600 | Antagonist | Antagonist | Antagonist | GABAC | ˜50x | > 300 | IC50 (GABAC (ρ1)): 6.34 µM
NCCCP(=O)(O)O [Compound 3-APA, 3-aminopropylphosphonic acid] | 1.8 | – | – | – | – | – | – | – | –
CP(=O)(O)CCCN [CGP35024, (3-aminopropyl)methylphosphinic acid] | 0.8 | – | – | – | – | – | – | – | –
